Test results reported in patent publication US6872401B2, “Cosmetic/dermatological compositions comprising a tetrahydrocurcuminoid and an amide oil” (L'Oreal, priority 2002, dated 2005).

Assay: Test of solubility: mixture of tetrahydrocurcuminoids in oils, microscopic examination
Assay type: physicochemical
Conditions: 1 g Tetrahydrocurcuminoids CG adjusted to 10 g with the oil, 15 minutes at 80° C., cooled 24 hours at room temperature
Method: Two amide oils in accordance with the invention are compared to 13 conventional oils used in cosmetics. Their solubilizing power is studied on a mixture of tetrahydrocurcuminoids of formula (I): i.e., the commercial product Tetrahydrocurcuminoids CG from Sabinsa as defined above.
1 g of a mixture of tetrahydrocurcuminoids is weighed and adjusted to 10 g with the oil studied. The mixture is heated for 15 minutes on a waterbath at 80° C. It is allowed to cool for 24 hours at room temperature and a microscopic examination is performed.

With CCCCN(CCC(=O)OCC)C(C)=O [N-acetyl-N-butylaminopropionate] the “SOLUBILITY AFTER 24 HOURS AT ROOM TEMPERATURE” value was “completely dissolve the mixture of tetrahydrocurcuminoids”.
